# Like-named read-outs stand apart in the source and are kept apart here.
# What was measured:
# Aβ40 = test: In vitro BACE cell-based assay (Aβ40 sandwich ELISA, cells stably expressing APP); details: Homo sapiens
# Description: In Vitro BACE Cell-Based Assay […] Cells stably expressing Amyloid Precursor Protein (APP) were plated at a density of 40K cells/well in 96 well plates (Costar). The cells were cultivated for 24 hours at 37° C. and 5% CO2 in DMEM supplemented with 10% FBS. The test compounds were then added to cells in 10-point dose response concentrations with the starting concentration being either 100 μM or 10 μM. The compounds were diluted from stock solutions in DMSO and the final DMSO concentration of the test compounds on cells was 0.1%. […] The IC50 of the compound was calculated from the percent of control or percent inhibition of Aβ40 as a function of the concentration of the test compound. The sandwich ELISA to detect Aβ40 was performed in 96 well microtiter plates, which were pre-treated with goat anti-rabbit IgG (Pierce). […] The optimal concentration for the pAb40 antibody was 3 μg/ml in Superblock/TBS (Pierce) that was supplemented with 0.05% Tween 20 (Sigma). […] Cellular supernatants were incubated with the capture antibody for 3 h at 4° C., followed by 3 wash steps in TBS-tween (0.05%). The detecting antibody incubation was for 2 h at 4° C., again followed by the wash steps as described previously. The final readout of the ELISA is Time-Resolved Fluorescence (counts per minute) using Delfia reagents Streptavidin-Europium and Enhancement solutions (Perkin Elmer) and the Victor 2 multilabel counter (Perkin Elmer).
# BACE = BACE (Homo sapiens, UniProt P56817); test: In vitro enzymatic BACE FRET assay; assay type: biochemical; details: average IC50, enzyme assay; read-out: BACE 1 FRET assay
# Description: In Vitro Enzymatic BACE FRET (Fluorescence Resonance Energy Transfer) Assay (Enzyme Assay Data in the Example Table I) The assay buffer used in this screen is 0.05 M acetate, pH 4.2, 10% DMSO final, 100 uM genapol (which is a nonionic detergent, below its Critical Micelle Concentration). The beta secretase enzyme (0.2 nM) is pre-incubated for one hour with inhibitors, typically in about 1 uL of DMSO according to a serial dilution, are added thereto. This assay is effectively started by the addition of FRET substrate (50 nM) and the combination is incubated for one hour. The FRET assay is terminated with by addition of Tris buffer, which raises the pH to neutrality, and the fluorescence is determined. The FRET substrate is a peptide with commercially available fluorophore and quencher, on opposite sides of the BACE cleavage site. Proteolytic cleavage of the FRET substrate releases quenching of fluorescence (excitation 488 nm and emission […]).
# [1] = HEK293, average IC50, read-out: HEK cell assay
# [2] = HEK293, average IC50, cell assay, HEK cells
# Chain of BACE (P56817 46-501, species assumed): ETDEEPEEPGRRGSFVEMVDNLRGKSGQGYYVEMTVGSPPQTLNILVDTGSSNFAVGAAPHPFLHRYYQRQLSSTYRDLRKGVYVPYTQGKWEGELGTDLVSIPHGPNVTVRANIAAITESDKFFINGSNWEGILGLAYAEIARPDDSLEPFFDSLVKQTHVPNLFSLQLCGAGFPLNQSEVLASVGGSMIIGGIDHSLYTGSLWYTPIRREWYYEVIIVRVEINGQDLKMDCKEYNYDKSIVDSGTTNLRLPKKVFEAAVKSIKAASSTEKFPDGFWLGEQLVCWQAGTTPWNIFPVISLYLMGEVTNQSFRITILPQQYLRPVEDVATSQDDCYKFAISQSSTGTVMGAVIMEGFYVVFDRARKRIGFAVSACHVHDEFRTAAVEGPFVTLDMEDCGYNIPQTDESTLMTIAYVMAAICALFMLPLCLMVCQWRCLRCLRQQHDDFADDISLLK
Structure (SMILES),IC50 (Aβ40; [1]) [nM],IC50 (BACE) [nM],IC50 (Aβ40; [2]) [nM]
NC1=N[C@@]2(COC1)c1cc(-c3cncc(F)c3)ccc1Oc1cnc(-c3ccnc(F)c3)cc12 [compound 113],,0.5,1
"CC(C)(C)COc1ccc2c(c1)[C@]1(COCC(N)=N1)c1cc(Br)ccc1O2 [compound 135, (3R)-2′-bromo-7′-(2,2-dimethylpropoxy)-6H-spiro[1,4-oxazine-3,9′-xanthen]-5-amine]",,102,587
CC(C)(C)C#Cc1ccc2c(c1)[C@@]1(COCC(N)=N1)c1cc(C3=CCOCC3)cnc1O2 [compound 214],6.1,3.2,
NC1=N[C@@]2(COC1)c1cc(-c3cc(F)ccc3F)ccc1Oc1ncc(-c3cccnc3)cc12 [compound 216],2.8,2.3,
NC1=N[C@@]2(CCO1)c1cc(-c3cncc(F)c3)ccc1Oc1cnc(-c3cccnc3)cc12 [compound 140],,10.8,3.4
"NC1=N[C@@]2(COC1)c1cc(-c3cccnc3F)ccc1Oc1c(F)cc(N3CCOCC3)cc12 [Example 35A, (S)-4′-fluoro-7′-(2-fluoropyridin-3-yl)-2′-morpholino-2,6-dihydrospiro[[1,4]oxazine-3,9′-xanthen]-5-amine]",,0.5,1.9
"CC(C)(F)COc1cc(F)c2c(c1)[C@]1(CCSC(N)=N1)c1cc(-c3cccnc3F)ccc1O2 [Example 204, (S)-4′-fluoro-2′-(2-fluoro-2-methylpropoxy)-7′-(2-fluoropyridin-3-yl)-5,6-dihydrospiro[[1,3]thiazine-4,9′-xanthen]-2-amine]",11.2,2.8,
NC1=N[C@@]2(COC1)c1cc(-c3cncc(F)c3)ccc1Oc1cnc(Cl)cc12 [compound 257],42,32.8,
C[C@H]1COC(N)=N[C@@]12c1cc(-c3cccnc3F)ccc1Oc1cnc(C3=CCCOC3)cc12 [compound 263],,449,
NC1=N[C@@]2(COC1)c1cc(-c3cccnc3F)ccc1Oc1cnc(C3=CCOCC3)cc12 [compound 71],,0.4,1.2
NC1=NC2(CCO1)c1cc(-c3cccnc3F)ccc1Oc1c2cc(-c2cccnc2F)nc1F (stereo not shown) [compound 101],,14.6,45.9
NC1=N[C@]2(CCO1)c1cc(-c3cccnc3F)ccc1Oc1cnc(-c3cncc(F)c3)cc12 [compound 152],,238,108
NC1=N[C@]2(CCS1)c1cc(-c3cccnc3F)ccc1Oc1ncc(C3=CCCOC3)cc12 [compound 271],2540,1040,
NC1=N[C@]2(COC1)c1cc(-c3cccnc3F)ccc1Oc1c2cc(Cl)nc1F [compound 244],3150,481,
NC1=N[C@@]2(COC1)c1cc(-c3cccnc3F)ccc1Oc1cnc([C@@H]3CCCOC3)cc12 [compound 81],,3.7,4.1
CCOc1cc2c(cn1)Oc1ccc(-c3cccnc3F)cc1[C@@]21COCC(N)=N1 [compound 260],2.1,1.6,
CC#Cc1cncc(-c2ccc3c(c2)[C@@]2(COCC(N)=N2)c2cc(C4=CCOCC4)cc(F)c2O3)c1 [compound 131],,0.7,2.5
CC1(C#Cc2cnc3c(c2)[C@]2(COCC(N)=N2)c2cc(-c4cc(Cl)ccc4F)ccc2O3)COC1 [compound 95],,0.5,1.2
COc1ccc2c(c1)[C@]1(COCC(N)=N1)c1cc(Br)ccc1O2 [compound 134],,7110,
NC1=N[C@]2(CCO1)c1cc(-c3cccnc3F)ccc1Oc1c2cc(-c2ccccc2)nc1F [compound 235],,176,
COc1cc(F)c2c(c1)C1(CCOC(N)=N1)c1cc(Br)ccc1O2 (racemic) [compound 20],,15400,
NC1=NC2(CCO1)c1cc(I)ccc1Oc1ncc(Br)cc12 (stereo not shown) [compound 25],,16000,
NC1=N[C@@]2(CCO1)c1cc(-c3cccnc3F)ccc1Oc1cnc(-c3ccccc3)cc12 [compound 138],,4.1,
NC1=NC2(CCS1)c1cc(Br)ccc1Oc1ccc(I)cc12 (stereo not shown) [compound 13],,9960,

# Other lines, results leading:
IC50 (Aβ40; [1]) [nM],IC50 (BACE) [nM],IC50 (Aβ40; [2]) [nM],Structure (SMILES)
0.8,0.6,,NC1=N[C@@]2(COC1)c1cc(-c3cccnc3F)ccc1Oc1c2cc(C2=CCOCC2)nc1F [compound 247]
164,793,,NC1=N[C@]2(CCO1)c1cc(-c3cncc(F)c3)ccc1Oc1c2cc(C2=CCCOC2)nc1F [compound 232]
,0.6,0.6,NC1=N[C@@]2(CCO1)c1cc(-c3cccnc3F)ccc1Oc1c2cc(C2=CCOCC2)nc1F [compound 108]
,4130,,NC1=NC2(COC1)c1cc(Br)ccc1Oc1cnc(Cl)cc12 (stereo not shown) [compound 9]
,1.2,0.6,CC(C)(C)C#Cc1cnc2c(c1)[C@]1(COCC(N)=N1)c1cc(-c3cncnc3)c(F)cc1O2 [compound 96]
,1.3,1.3,NC1=N[C@@]2(COC1)c1cc(-c3cc(Cl)ccc3F)ccc1Oc1ncc(N3CC4CCC(C3)O4)cc12 [compound 94]
16,1.2,,NC1=N[C@@]2(COC1)c1cc(-c3cccnc3F)ccc1Oc1c2cc(Cl)nc1F [compound 242]
,0.7,0.9,"NC1=N[C@@]2(COC1)c1cc(-c3cccnc3F)ccc1Oc1cnc(C3CCOCC3)cc12 [Example 34, (S)-7-(2-fluoropyridin-3-yl)-3-(tetrahydro-2H-pyran-4-yl)-2′,6′-dihydrospiro[chromeno[2,3-c]pyridine-5,3′-[1,4]oxazin]-5′-amine]"
0.3,0.8,,NC1=N[C@@]2(CCO1)c1cc(-c3cccnc3)ccc1Oc1c2cc(-c2cncc(F)c2)nc1F [compound 231]
0.7,0.5,,"NC1=N[C@@]2(COC1)c1cc(-c3cccnc3F)ccc1Oc1c2cc(N2CCOCC2)nc1F [Example 58, (S)-1-fluoro-7-(2-fluoropyridin-3-yl)-3-morpholino-2′,6′-dihydrospiro[chromeno[2,3-c]pyridine-5,3′-[1,4]oxazin]-5′-amine 2,2,2-trifluoroacetate]"
50,10.6,,COc1cc2c(cn1)Oc1ccc(-c3cccc(F)c3)cc1[C@@]21COCC(N)=N1 [compound 252]
,9590,,COc1cc(F)c2c(c1)[C@@]1(CCSC(N)=N1)c1cc(-c3cccnc3F)ccc1O2 [compound 186]
,616,71.3,NC1=N[C@]2(CCO1)c1cc(-c3cccnc3)ccc1Oc1c(F)cc(C3=CCCOC3)cc12 [compound 159]
,5.7,3.7,NC1=N[C@@]2(CCO1)c1cc(-c3cncc(F)c3)ccc1Oc1cnc(C3=CCOCC3)cc12 [compound 143]
0.1,0.4,,NC1=N[C@@]2(COC1)c1cc(-c3cccnc3)ccc1Oc1c2cc(C2=CCCOC2)nc1F [compound 246]
,2,,NC1=N[C@@]2(CCO1)c1cc(-c3cccnc3F)ccc1Oc1c2cc(-c2ccccc2)nc1F [compound 230]
587,,,"CC(C)(C)COc1ccc2c(c1)[C@]1(COCC(N)=N1)c1cc(Br)ccc1O2 [Example 67a, (3R)-2′-bromo-7′-(2,2-dimethylpropoxy)-6H-spiro[1,4-oxazine-3,9′-xanthen]-5-amine]"
,23700,,COc1ccc2c(c1)C1(CCSC(N)=N1)c1cc(Br)ccc1O2 (stereo not shown) [compound 136]
,4.1,,C[C@@H]1COC(N)=N[C@]12c1cc(-c3cccnc3F)ccc1Oc1cnc(C3=CCCOC3)cc12 [compound 262]
,3.7,,CC1COC(N)=N[C@]12c1cc(-c3cccnc3F)ccc1Oc1cnc(C3=CCCOC3)cc12 (stereo partly shown) [compound 264]
,4150,,"NC1=N[C@@]2(COC1)c1cc(Br)ccc1Oc1cnc(Cl)cc12 (single isomer, unassigned) [Example 9A]"
,23100,,"NC1=N[C@]2(COC1)c1cc(Br)ccc1Oc1cnc(Cl)cc12 (single isomer, unassigned) [Example 9B]"
,20000,,NC1=N[C@@]2(CO[C@@H]1C(F)(F)F)c1cc(Br)ccc1Oc1cnc(Cl)cc12 [compound 205]
,4220,,COc1cc(F)c2c(c1)[C@@]1(CCOC(N)=N1)c1cc(-c3cccnc3F)ccc1O2 [compound 174]
,890,,CC1COC(N)=N[C@@]12c1cc(-c3cccnc3F)ccc1Oc1cnc(C3=CCCOC3)cc12 (stereo partly shown) [compound 261]

# From patent publication US9012446B2, “Amino-oxazines and amino-dihydrothiazine compounds as beta-secretase modulators and methods of use” (Amgen Inc., priority 2010, dated 2015)
